These are literature values, as cited in patent publication US7390922B2, “Phenolic acid salts of gabapentin in liquid and/or semi-solid dosage forms and methods of use” (Kiel Laboratories, Inc., priority 2003, dated 2008).

Series [1] deals with gb1a-gb^2 heterodimer and post-synaptic GABAB receptor (Homo sapiens, UniProt Q9UBS5).
For series [2] the following is noted: in water and across a wide range of pH.

Chain of gb1a-gb^2 heterodimer and post-synaptic GABAB receptor (Q9UBS5 15-961 limits assumed): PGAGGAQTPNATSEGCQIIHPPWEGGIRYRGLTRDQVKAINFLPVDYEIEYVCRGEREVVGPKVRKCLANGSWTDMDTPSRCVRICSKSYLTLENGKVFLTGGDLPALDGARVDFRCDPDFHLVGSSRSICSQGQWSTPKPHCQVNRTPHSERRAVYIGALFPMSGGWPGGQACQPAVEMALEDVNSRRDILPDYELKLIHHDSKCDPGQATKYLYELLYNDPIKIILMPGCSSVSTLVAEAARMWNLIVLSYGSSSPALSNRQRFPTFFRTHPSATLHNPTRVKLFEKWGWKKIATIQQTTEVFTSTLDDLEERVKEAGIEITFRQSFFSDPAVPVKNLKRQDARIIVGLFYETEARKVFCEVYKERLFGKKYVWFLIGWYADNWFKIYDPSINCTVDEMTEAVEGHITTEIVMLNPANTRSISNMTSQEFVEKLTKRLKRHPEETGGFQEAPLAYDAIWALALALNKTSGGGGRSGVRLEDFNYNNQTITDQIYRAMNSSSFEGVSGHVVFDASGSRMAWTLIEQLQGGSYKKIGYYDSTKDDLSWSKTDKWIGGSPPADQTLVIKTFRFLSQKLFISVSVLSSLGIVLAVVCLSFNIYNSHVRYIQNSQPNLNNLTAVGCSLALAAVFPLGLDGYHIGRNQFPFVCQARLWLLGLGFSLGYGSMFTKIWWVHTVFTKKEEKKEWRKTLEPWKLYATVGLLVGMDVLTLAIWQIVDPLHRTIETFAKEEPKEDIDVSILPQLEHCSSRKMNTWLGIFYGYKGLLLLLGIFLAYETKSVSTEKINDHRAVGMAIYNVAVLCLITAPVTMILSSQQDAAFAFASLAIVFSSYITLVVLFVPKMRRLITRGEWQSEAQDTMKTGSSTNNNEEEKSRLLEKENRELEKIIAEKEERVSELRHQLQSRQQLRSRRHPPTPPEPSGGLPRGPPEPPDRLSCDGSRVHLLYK
Chain of gb1a-gb^2 heterodimer and post-synaptic GABAB receptor (O75899 42-941 partner): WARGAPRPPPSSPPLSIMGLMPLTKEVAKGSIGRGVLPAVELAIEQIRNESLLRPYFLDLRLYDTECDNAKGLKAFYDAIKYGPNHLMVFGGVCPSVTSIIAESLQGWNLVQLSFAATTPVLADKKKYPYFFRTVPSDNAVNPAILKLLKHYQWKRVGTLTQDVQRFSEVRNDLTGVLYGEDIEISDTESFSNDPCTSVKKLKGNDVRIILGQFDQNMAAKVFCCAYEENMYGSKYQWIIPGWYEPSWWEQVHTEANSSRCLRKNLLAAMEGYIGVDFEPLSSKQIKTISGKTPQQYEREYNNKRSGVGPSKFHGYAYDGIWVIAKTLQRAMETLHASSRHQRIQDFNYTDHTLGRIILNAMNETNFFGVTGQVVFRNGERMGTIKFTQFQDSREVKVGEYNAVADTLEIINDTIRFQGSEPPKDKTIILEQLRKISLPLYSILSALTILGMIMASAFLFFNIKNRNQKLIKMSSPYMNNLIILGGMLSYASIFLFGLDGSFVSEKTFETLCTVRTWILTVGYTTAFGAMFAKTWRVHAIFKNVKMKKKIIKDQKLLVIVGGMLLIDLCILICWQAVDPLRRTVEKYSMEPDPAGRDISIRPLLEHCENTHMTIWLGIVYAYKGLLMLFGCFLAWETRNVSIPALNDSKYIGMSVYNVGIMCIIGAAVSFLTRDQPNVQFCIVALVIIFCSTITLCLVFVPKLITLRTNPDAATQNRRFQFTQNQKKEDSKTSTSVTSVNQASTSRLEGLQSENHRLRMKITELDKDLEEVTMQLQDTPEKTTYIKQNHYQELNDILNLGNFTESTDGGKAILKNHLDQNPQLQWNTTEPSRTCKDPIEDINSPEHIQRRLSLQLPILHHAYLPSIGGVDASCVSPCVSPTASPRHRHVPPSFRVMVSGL

Regarding `NCC1(CC(=O)O)CCCCC1` [gabapentin, l-(amino methyl) cyclohexaneacetic acid], in series [1], the receptor activity result was “selective agonist”. For the same compound, the “time of peak plasma gabapentin concentrations” value (adults, post-dose) is 2 to 3 h. Also, under “after administration of 300 mg, dose-dependent”, the absolute bioavailability result is recorded as “approximately 60%”. Moreover, for the setting “in vivo”, the metabolism entry is given as “is not metabolized”, the plasma protein binding result is given as “does not bind to plasma proteins” and the route of elimination result is “eliminated via glomerular filtration”. For the same compound, the blood-brain barrier passage entry (unlike GABA) is given as “able to cross the blood-brain barrier”. Besides, the solubility entry in series [2] is reported as “freely soluble in water”.
